Assay results from ChEMBL document CHEMBL4507272 (2021).

What was measured:
[1] = tested on: Hepatocyte growth factor receptor (Homo sapiens), P08581 [M1250T]; settings: Compound concentration 1000.0 nM
[2] = molecular target: Dual specificity protein kinase TTK (Homo sapiens) (UniProt P33981); settings: Compound concentration 1000.0 nM
[3] = molecular target: High affinity nerve growth factor receptor (Homo sapiens) (UniProt P04629); settings: Compound concentration 1000.0 nM
[4] = molecular target: Epithelial discoidin domain-containing receptor 1 (Homo sapiens) (UniProt Q08345); settings: Compound concentration 1000.0 nM
[5] = tested on: Phosphatidylinositol 4,5-bisphosphate 3-kinase catalytic subunit alpha isoform (Homo sapiens), P42336 [H1047Y]; settings: Compound concentration 1000.0 nM
[6] = molecular target: Inhibitor of nuclear factor kappa-B kinase subunit epsilon (Homo sapiens) (UniProt Q14164); settings: Compound concentration 1000.0 nM
[7] = molecular target: 5-hydroxytryptamine receptor 2B (Homo sapiens) (UniProt P41595); settings: Compound concentration 10.0 uM
[8] = molecular target: Casein kinase II subunit alpha (Homo sapiens) (UniProt P68400); settings: Compound concentration 1000.0 nM
[9] = molecular target: Ribosomal protein S6 kinase alpha-3 (Homo sapiens) (UniProt P51812); settings: Compound concentration 1000.0 nM
[10] = molecular target: Megakaryocyte-associated tyrosine-protein kinase (Homo sapiens) (UniProt P42679); settings: Compound concentration 1000.0 nM
[11] = tested on: Epidermal growth factor receptor (Homo sapiens), P00533 [UNDEFINED MUTATION]; settings: Compound concentration 1000.0 nM
[12] = molecular target: Homeodomain-interacting protein kinase 1 (Homo sapiens) (UniProt Q86Z02); settings: Compound concentration 1000.0 nM
[13] = molecular target: Atypical kinase COQ8B, mitochondrial (Homo sapiens) (UniProt Q96D53); settings: Compound concentration 1000.0 nM
[14] = molecular target: Bone morphogenetic protein receptor type-1A (Homo sapiens) (UniProt P36894); settings: Compound concentration 1000.0 nM
[15] = molecular target: Phosphatidylinositol 4-phosphate 5-kinase type-1 gamma (Homo sapiens) (UniProt O60331); settings: Compound concentration 1000.0 nM
[16] = molecular target: Receptor-interacting serine/threonine-protein kinase 1 (Homo sapiens) (UniProt Q13546); settings: Compound concentration 1000.0 nM
[17] = tested on: Mast/stem cell growth factor receptor Kit (Homo sapiens), P10721 [V559D,T670I]; settings: Compound concentration 1000.0 nM
[18] = molecular target: Mitogen-activated protein kinase 14 (Homo sapiens) (UniProt Q16539); settings: Compound concentration 1000.0 nM
[19] = molecular target: Ephrin type-B receptor 6 (Homo sapiens) (UniProt O15197); settings: Compound concentration 1000.0 nM
[20] = molecular target: Ephrin type-A receptor 6 (Homo sapiens) (UniProt Q9UF33); settings: Compound concentration 1000.0 nM
[21] = molecular target: Mitogen-activated protein kinase 6 (Homo sapiens) (UniProt Q16659); settings: Compound concentration 1000.0 nM
[22] = molecular target: Non-receptor tyrosine-protein kinase TNK1 (Homo sapiens) (UniProt Q13470); settings: Compound concentration 1000.0 nM
[23] = molecular target: Homeodomain-interacting protein kinase 4 (Homo sapiens) (UniProt Q8NE63); settings: Compound concentration 1000.0 nM
[24] = molecular target: Sigma intracellular receptor 2 (Homo sapiens) (UniProt Q5BJF2); settings: Compound concentration 10.0 uM
[25] = molecular target: Homeodomain-interacting protein kinase 2 (Homo sapiens) (UniProt Q9H2X6); settings: Compound concentration 1000.0 nM
[26] = molecular target: Ribosomal protein S6 kinase alpha-2 (Homo sapiens) (UniProt Q15349); settings: Compound concentration 1000.0 nM
[27] = molecular target: Serine/threonine-protein kinase PAK 4 (Homo sapiens) (UniProt O96013); settings: Compound concentration 1000.0 nM
[28] = molecular target: 5'-AMP-activated protein kinase catalytic subunit alpha-2 (Homo sapiens) (UniProt P54646); settings: Compound concentration 1000.0 nM
[29] = molecular target: Serine/threonine-protein kinase 32B (Homo sapiens) (UniProt Q9NY57); settings: Compound concentration 1000.0 nM
[30] = molecular target: Hepatocyte growth factor receptor (Homo sapiens) (UniProt P08581); settings: Compound concentration 1000.0 nM
[31] = molecular target: Serine/threonine-protein kinase tousled-like 1 (Homo sapiens) (UniProt Q9UKI8); settings: Compound concentration 1000.0 nM
[32] = molecular target: Ephrin type-A receptor 4 (Homo sapiens) (UniProt P54764); settings: Compound concentration 1000.0 nM
[33] = tested on: Epidermal growth factor receptor (Homo sapiens), P00533 [UNDEFINED MUTATION]; settings: Compound concentration 1000.0 nM; remark: listed apart in the source
[34] = molecular target: Mitogen-activated protein kinase kinase kinase 3 (Homo sapiens) (UniProt Q99759); settings: Compound concentration 1000.0 nM
[35] = molecular target: Interferon-induced, double-stranded RNA-activated protein kinase (Homo sapiens) (UniProt P19525); settings: Compound concentration 1000.0 nM
[36] = molecular target: Dual specificity tyrosine-phosphorylation-regulated kinase 1B (Homo sapiens) (UniProt Q9Y463); settings: Compound concentration 1000.0 nM
[37] = molecular target: TRAF2 and NCK-interacting protein kinase (Homo sapiens) (UniProt Q9UKE5); settings: Compound concentration 1000.0 nM
[38] = molecular target: Citron Rho-interacting kinase (Homo sapiens) (UniProt O14578); settings: Compound concentration 1000.0 nM
[39] = molecular target: 5-hydroxytryptamine receptor 1A (Homo sapiens, UniProt P08908); test: GPCRScan assay: inhibition of 5-HT1A; parameters: radioligand conc. used [nm] 0.5 – 1.0, parental cells stable CHO
[40] = molecular target: 5-hydroxytryptamine receptor 5A (Homo sapiens) (UniProt P47898); settings: Compound concentration 10.0 uM
[41] = tested on: ALK tyrosine kinase receptor (Homo sapiens), Q9UM73 [C1156Y]; settings: Compound concentration 1000.0 nM
[42] = molecular target: GABA-A receptor; anion channel (Rattus norvegicus) (UniProt O09028+P15431+P18506+P18508+P19969+P20236+P23574+P23576+P28471+P28473+P30191+P62813+P63079+P63138+Q91ZM7+Q9ES14); settings: Compound concentration 10.0 uM
[43] = tested on: Phosphatidylinositol 4,5-bisphosphate 3-kinase catalytic subunit alpha isoform (Homo sapiens), P42336 [C420R]; settings: Compound concentration 1000.0 nM

Chain of 5-hydroxytryptamine receptor 1A (P08908 whole entry): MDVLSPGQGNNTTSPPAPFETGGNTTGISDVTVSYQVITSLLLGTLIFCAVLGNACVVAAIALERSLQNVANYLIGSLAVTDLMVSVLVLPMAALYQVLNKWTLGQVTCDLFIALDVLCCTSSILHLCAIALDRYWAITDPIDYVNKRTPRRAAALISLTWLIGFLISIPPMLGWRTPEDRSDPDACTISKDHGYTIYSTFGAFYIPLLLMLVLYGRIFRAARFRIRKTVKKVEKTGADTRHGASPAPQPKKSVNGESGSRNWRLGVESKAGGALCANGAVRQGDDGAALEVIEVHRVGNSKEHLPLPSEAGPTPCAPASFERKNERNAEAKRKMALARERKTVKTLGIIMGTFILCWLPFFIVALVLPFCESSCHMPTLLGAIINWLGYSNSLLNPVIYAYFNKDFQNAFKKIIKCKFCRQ
Chain of Epidermal growth factor receptor (Homo sapiens), P00533 [UNDEFINED MUTATION] (P00533 whole entry, looked up, change not shown): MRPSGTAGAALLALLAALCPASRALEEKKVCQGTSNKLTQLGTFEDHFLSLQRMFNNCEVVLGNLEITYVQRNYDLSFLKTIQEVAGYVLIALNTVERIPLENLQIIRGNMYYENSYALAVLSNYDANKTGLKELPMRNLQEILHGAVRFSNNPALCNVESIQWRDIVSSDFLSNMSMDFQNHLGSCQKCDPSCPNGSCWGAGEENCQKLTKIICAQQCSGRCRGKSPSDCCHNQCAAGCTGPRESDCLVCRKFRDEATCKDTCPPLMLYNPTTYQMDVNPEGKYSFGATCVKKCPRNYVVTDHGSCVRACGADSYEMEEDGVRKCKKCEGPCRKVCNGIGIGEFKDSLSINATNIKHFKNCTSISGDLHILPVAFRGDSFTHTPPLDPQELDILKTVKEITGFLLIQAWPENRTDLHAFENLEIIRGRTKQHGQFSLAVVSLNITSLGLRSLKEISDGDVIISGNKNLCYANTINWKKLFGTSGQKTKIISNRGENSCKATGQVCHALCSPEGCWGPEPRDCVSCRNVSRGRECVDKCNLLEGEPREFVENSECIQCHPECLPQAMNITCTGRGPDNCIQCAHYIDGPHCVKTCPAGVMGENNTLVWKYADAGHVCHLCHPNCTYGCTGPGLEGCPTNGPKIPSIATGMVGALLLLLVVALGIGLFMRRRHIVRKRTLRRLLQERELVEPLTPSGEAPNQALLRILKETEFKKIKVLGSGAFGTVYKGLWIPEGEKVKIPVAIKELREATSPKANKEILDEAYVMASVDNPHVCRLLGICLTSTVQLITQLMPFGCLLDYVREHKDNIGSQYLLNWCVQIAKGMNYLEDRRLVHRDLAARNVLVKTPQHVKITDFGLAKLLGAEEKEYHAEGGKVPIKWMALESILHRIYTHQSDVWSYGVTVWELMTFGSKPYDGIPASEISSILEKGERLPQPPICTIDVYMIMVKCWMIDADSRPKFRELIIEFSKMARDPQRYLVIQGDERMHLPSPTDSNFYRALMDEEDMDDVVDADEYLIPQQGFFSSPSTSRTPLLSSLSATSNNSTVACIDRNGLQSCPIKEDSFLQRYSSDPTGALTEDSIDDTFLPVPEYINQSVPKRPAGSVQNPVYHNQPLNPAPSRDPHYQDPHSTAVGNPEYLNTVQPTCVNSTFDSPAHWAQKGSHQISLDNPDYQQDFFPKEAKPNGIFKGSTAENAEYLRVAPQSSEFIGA
Chain of Ephrin type-A receptor 6 (Homo sapiens) (Q9UF33 whole entry): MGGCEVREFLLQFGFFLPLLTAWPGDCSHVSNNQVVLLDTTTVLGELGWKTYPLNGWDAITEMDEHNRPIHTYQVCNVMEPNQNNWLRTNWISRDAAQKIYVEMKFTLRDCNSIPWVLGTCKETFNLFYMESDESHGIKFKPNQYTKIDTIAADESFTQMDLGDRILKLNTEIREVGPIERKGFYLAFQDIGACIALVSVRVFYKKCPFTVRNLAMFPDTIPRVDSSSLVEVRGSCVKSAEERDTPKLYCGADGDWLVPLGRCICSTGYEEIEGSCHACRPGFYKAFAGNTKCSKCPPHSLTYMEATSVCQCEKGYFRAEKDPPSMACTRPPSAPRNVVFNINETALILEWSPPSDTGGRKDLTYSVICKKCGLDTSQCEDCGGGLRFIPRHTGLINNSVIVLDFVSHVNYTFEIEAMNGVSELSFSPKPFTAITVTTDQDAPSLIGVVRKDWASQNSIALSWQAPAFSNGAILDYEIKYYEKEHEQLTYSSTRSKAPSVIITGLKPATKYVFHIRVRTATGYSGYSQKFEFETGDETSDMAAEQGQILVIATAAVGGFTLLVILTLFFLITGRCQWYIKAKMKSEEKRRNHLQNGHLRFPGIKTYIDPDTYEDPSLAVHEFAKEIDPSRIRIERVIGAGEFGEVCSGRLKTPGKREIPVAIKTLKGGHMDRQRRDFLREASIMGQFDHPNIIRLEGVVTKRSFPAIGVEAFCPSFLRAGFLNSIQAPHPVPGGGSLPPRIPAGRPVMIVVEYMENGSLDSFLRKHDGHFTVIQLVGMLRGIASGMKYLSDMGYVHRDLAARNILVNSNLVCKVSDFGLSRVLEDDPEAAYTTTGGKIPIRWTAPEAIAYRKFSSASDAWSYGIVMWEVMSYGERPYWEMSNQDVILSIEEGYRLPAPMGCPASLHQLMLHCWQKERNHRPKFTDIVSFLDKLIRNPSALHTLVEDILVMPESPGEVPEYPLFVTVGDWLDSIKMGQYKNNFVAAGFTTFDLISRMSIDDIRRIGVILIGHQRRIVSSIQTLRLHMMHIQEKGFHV
Chain of 5-hydroxytryptamine receptor 5A (Homo sapiens) (P47898 whole entry): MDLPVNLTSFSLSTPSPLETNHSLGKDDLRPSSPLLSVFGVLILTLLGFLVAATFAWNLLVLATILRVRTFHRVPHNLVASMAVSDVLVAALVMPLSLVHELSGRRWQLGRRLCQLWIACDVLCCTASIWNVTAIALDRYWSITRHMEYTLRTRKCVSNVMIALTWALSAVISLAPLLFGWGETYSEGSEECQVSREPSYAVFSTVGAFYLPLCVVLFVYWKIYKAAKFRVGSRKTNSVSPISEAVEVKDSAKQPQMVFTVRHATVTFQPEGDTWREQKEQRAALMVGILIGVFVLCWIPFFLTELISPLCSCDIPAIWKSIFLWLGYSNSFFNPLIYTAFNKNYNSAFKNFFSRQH
Chain of Phosphatidylinositol 4-phosphate 5-kinase type-1 gamma (Homo sapiens) (O60331 whole entry): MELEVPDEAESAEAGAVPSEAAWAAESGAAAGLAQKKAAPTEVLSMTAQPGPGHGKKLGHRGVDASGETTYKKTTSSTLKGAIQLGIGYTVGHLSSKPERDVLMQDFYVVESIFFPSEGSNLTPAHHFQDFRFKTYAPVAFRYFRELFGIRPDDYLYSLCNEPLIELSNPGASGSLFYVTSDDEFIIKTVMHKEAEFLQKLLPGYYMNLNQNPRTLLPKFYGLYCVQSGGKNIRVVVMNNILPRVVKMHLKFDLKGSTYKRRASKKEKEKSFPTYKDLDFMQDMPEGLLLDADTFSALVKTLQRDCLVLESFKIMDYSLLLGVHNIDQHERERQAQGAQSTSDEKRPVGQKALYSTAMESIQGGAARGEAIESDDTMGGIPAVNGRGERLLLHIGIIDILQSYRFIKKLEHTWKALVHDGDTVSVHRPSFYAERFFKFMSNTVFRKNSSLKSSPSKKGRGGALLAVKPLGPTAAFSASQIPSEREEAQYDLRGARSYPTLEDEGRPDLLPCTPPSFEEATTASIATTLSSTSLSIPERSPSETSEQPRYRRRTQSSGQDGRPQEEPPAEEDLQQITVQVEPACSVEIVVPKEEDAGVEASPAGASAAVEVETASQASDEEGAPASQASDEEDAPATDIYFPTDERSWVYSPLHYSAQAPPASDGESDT
Chain of Mast/stem cell growth factor receptor Kit (Homo sapiens), P10721 [V559D,T670I] (P10721 whole entry V559D/T670I): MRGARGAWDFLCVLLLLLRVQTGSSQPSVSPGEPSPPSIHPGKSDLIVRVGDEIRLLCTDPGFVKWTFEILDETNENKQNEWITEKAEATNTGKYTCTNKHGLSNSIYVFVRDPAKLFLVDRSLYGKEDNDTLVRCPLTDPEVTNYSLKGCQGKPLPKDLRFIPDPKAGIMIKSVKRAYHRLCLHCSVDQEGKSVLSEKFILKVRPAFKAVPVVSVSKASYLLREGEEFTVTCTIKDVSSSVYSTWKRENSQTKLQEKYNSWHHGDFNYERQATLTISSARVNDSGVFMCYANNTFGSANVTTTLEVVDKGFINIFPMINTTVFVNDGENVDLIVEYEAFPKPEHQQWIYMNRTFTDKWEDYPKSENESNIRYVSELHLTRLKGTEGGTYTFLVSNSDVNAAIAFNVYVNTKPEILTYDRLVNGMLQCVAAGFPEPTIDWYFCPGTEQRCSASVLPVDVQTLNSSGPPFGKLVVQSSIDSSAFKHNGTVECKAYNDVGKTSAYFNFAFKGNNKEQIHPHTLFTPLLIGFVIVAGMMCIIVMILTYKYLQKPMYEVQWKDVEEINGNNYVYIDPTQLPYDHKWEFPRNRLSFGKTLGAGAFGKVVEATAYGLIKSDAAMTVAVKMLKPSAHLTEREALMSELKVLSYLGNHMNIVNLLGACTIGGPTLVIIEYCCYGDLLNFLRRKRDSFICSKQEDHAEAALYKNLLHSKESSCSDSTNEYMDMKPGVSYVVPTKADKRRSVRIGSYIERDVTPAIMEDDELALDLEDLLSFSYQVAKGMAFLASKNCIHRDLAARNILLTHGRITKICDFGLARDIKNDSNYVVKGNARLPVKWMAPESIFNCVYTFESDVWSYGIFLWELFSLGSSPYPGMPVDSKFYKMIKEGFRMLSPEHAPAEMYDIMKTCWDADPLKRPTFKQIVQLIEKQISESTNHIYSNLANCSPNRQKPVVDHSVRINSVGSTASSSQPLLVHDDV
Chain of Casein kinase II subunit alpha (Homo sapiens) (P68400 whole entry, looked up): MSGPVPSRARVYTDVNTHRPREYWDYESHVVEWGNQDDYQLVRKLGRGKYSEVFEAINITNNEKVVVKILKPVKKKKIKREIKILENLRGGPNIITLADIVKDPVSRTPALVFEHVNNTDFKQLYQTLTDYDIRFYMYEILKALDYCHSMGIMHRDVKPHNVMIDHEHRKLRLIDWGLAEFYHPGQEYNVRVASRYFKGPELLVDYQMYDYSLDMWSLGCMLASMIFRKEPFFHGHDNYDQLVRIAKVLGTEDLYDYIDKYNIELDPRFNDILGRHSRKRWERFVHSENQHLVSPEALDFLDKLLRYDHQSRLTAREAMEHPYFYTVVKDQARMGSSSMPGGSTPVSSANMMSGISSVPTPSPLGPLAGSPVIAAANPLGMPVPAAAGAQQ

With CC(=O)C1=C(C)N(c2cccc(C(F)(F)F)c2)C(=O)N[C@@H]1c1ccc(C#N)nc1 [BAY-678] as the molecule, how does the residual activity [1] read?
The residual activity was 100%.

What about the residual activity [2] of the same molecule?
Its residual activity is 97.9%.

And the residual activity [3]?
The residual activity was 100%.

What about the residual activity [4] of the same molecule?
The residual activity was 71.5%.

And the residual activity [5]?
The residual activity was 87.6%.

And the residual activity [6]?
The residual activity was 98.2%.

What about the inhibition [7] of the same molecule?
The inhibition was 6.06%.

And the residual activity [8]?
The residual activity was 94.8%.

And the residual activity [9]?
Its residual activity is 100%.

What about the residual activity [10] of the same molecule?
The residual activity was 100%.

What about the residual activity [11] of the same molecule?
The residual activity was 92.9%.

And the residual activity [12]?
Its residual activity is 72.6%.

What about the residual activity [13] of the same molecule?
Its residual activity is 100%.

And the residual activity [14]?
Its residual activity is 100%.

And the residual activity [15]?
Its residual activity is 100%.

And the residual activity [16]?
Its residual activity is 85.8%.

And the residual activity [17]?
Its residual activity is 96.7%.

What about the residual activity [18] of the same molecule?
Its residual activity is 100%.

What about the residual activity [19] of the same molecule?
Its residual activity is 85%.

And the residual activity [20]?
The residual activity was 94.5%.

What about the residual activity [21] of the same molecule?
Its residual activity is 75.8%.

And the residual activity [22]?
The residual activity was 62.1%.

What about the residual activity [23] of the same molecule?
Its residual activity is 100%.

What about the inhibition [24] of the same molecule?
Its inhibition is 35.9%.

And the residual activity [25]?
The residual activity was 94.3%.

And the residual activity [26]?
Its residual activity is 100%.

What about the residual activity [27] of the same molecule?
The residual activity was 97.9%.

And the residual activity [28]?
The residual activity was 80.4%.

What about the residual activity [29] of the same molecule?
The residual activity was 100%.

What about the residual activity [30] of the same molecule?
The residual activity was 98.1%.

What about the residual activity [31] of the same molecule?
The residual activity was 85.3%.

And the residual activity [32]?
Its residual activity is 100%.

What about the residual activity [33] of the same molecule?
Its residual activity is 80%.

And the residual activity [34]?
Its residual activity is 100%.

What about the residual activity [35] of the same molecule?
Its residual activity is 83.4%.

And the residual activity [36]?
The residual activity was 100%.

And the residual activity [37]?
The residual activity was 90.8%.

What about the residual activity [38] of the same molecule?
Its residual activity is 77.6%.

And the Ki ([39]; read-out: Ki)?
Its Ki is 4.98 µM.

What about the Ki ([39]; read-out: pKi (converted)) of the same molecule?
Its Ki is 4.9 µM.

And the inhibition [40]?
The inhibition was 4.22%.

And the residual activity [41]?
The residual activity was 100%.

And the inhibition [42]?
Its inhibition is 11.9%.

What about the residual activity [43] of the same molecule?
The residual activity was 100%.
